Assays:
hCA XII = target: T1, hCA XII (Homo sapiens, UniProt O43570); assay: CA inhibition, stopped-flow CO2 hydrase assay; assay type: biochemical; conditions: stopped-flow technique; incubation time 6 h; mean of 3 assays
T1 construct: made in house
Protocol: (§1) Four hCA isoforms were used in this assay: the cytosolic hCA I and II and the tumor-associated transmembrane hCA IX and XII isoforms. Acetazolamide (AAZ) was used as a standard inhibitor.
(§2) An SX.18MV-R Applied Photophysics (Oxford, UK) stopped-flow instrument has been used to assay the catalytic/inhibition of various CA isozymes. […] Saturated CO2 solutions in water at 25 °C were used as substrate. Stock solutions of inhibitors were prepared at a concentration of 10 μM (in DMSO-water 1:1, v/v) and dilutions up to 0.01 nM were carried out with the assay buffer mentioned above. […] Inhibitor and enzyme solutions were preincubated together for 6 h at room temperature prior to assay in order to allow for the formation of the E-I complex. […] The inhibition constants were obtained by non-linear least-squares methods using the Cheng–Prusoff equation, as reported earlier, and represent the mean from at least three different determinations.

hCA IX = target: T2, hCA IX (Homo sapiens, UniProt Q16790); assay: CA inhibition, stopped-flow CO2 hydrase assay; assay type: biochemical; conditions: stopped-flow technique; incubation time 6 h; mean of 3 assays
T2 construct: made in house
Protocol: as §1, §2

hCA II = target: T3, hCA II (Homo sapiens, UniProt P00918); assay: CA inhibition, stopped-flow CO2 hydrase assay; assay type: biochemical; conditions: stopped-flow technique; incubation time 6 h; mean of 3 assays
T3 construct: made in house
Protocol: as §1, §2

hCA I = target: T4, hCA I (Homo sapiens, UniProt P00915); assay: CA inhibition, stopped-flow CO2 hydrase assay; assay type: biochemical; conditions: stopped-flow technique; incubation time 6 h; mean of 3 assays
T4 construct: made in house
T4 sequence (P00915 whole entry): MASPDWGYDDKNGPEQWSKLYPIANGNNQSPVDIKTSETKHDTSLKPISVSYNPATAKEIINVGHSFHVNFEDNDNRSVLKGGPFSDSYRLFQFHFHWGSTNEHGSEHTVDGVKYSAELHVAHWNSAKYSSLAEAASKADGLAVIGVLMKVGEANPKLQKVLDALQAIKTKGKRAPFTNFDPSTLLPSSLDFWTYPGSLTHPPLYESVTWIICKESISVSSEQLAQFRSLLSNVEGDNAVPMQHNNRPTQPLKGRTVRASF
Protocol: as §1, §2

K562/DOX cells = assay: Doxorubicin cytotoxicity enhancement assay (MTT); assay type: cell-based, human; conditions: 72 h
Protocol: K562 is a highly undifferentiated erythroleukemia cell line. The doxorubicin-resistant K562/DOX cells overexpress almost exclusively the transporter membrane protein P-gp.
K562/DOX cells were incubated for 72 h with different concentrations of doxorubicin in combination with 1 or 3 µM of all compounds. […] HT29, A549, HT29/DOX and A549/DOX cells were incubated for 48 h with 5 µM doxorubicin, alone or in combination with 1 or 3 µM of selected compounds. Cell viability of the cell lines was measured by the MTT assay, using a Synergy HT microplate spectrofluorometer (Bio-Tek Instruments, Winooski, VT, USA). The absorbance of untreated cells was considered 100%; results were expressed as a percentage of viable treated cells versus the control untreated cells.

HT29/DOX cells [1] = assay: Intrinsic cytotoxicity (MTT); assay type: cell-based, human; conditions: compound alone at 1 µM; HT29/DOX; 48 h
Protocol: (§3) All compounds were preliminarily studied to evaluate their intrinsic cytotoxicity at different concentrations (from 10 nM to 50 µM) in the parental HT29 and A549 and the resistant HT29/DOX and A549/DOX cells using the MTT assay.
(§4) The intrinsic toxicity of the studied compounds was determined by an MTT assay. K562 and K562/DOX were exposed for 72 h with compounds at 1 and 3 µM concentrations while HT29, A549, HT29/DOX and A549/DOX cells were incubated for 48 h with compounds used at different concentrations (from 10 nM to 50 µM). The percentage of growth compared to the untreated control was transformed into histograms with the GraphPad Prism 5 program. […]

A549/DOX cells [2] = assay: Intrinsic cytotoxicity (MTT); assay type: cell-based, human; conditions: compound alone at 1 µM; A549/DOX; 48 h
Protocol: as §3, §4

HT29 cells = assay: Intrinsic cytotoxicity (MTT); assay type: cell-based, human; conditions: compound alone at 1 µM; parental HT29; 48 h
Protocol: as §3
(§5) The intrinsic toxicity of the studied compounds was determined by an MTT assay. K562 and K562/DOX were exposed for 72 h with compounds at 1 and 3 µM concentrations while HT29, A549, HT29/DOX and A549/DOX cells were incubated for 48 h with compounds used at different concentrations (from 10 nM to 50 µM). The percentage of growth compared to the untreated control was transformed into histograms with the GraphPad Prism 5 program.

A549 cells = assay: Intrinsic cytotoxicity (MTT); assay type: cell-based, human; conditions: compound alone at 1 µM; parental A549; 48 h
Protocol: as §3, §5

HT29/DOX cells [3] = assay: Doxorubicin co-administration assay (MTT); assay type: cell-based, human; conditions: compound at 3 µM + doxorubicin 5 µM, 48 h
Protocol: (§6) These compounds were then assayed at 1 and 3 µM concentrations in co-administration with doxorubicin at a concentration of 5 µM, which is known to discriminate well between sensitive and resistant cells. […] Moreover, in the A549/DOX cell line, the co-administration of 1, 2, 4–6, 14 and 19, tested at 3 µM, led to the highest enhancement of doxorubicin toxicity reaching a reduction of nearly 55.0% in cell viability.
(§7) K562/DOX cells were incubated for 72 h with different concentrations of doxorubicin in combination with 1 or 3 µM of all compounds. IC50 was the concentration killing 50% of cells and was determined graphically from relative survival curves obtained by GraphPad Prism 5 software (GraphPad, San Diego, CA, USA). HT29, A549, HT29/DOX and A549/DOX cells were incubated for 48 h with 5 µM doxorubicin, alone or in combination with 1 or 3 µM of selected compounds. Cell viability of the cell lines was measured by the MTT assay, using a Synergy HT microplate spectrofluorometer (Bio-Tek Instruments, Winooski, VT, USA). The absorbance of untreated cells was considered 100%; results were expressed as a percentage of viable treated cells versus the control untreated cells.

A549/DOX cells [4] = assay: Doxorubicin co-administration assay (MTT); assay type: cell-based, human; conditions: compound at 3 µM + doxorubicin 5 µM, 48 h
Protocol: as §6, §7

T1 sequence (O43570 25-354): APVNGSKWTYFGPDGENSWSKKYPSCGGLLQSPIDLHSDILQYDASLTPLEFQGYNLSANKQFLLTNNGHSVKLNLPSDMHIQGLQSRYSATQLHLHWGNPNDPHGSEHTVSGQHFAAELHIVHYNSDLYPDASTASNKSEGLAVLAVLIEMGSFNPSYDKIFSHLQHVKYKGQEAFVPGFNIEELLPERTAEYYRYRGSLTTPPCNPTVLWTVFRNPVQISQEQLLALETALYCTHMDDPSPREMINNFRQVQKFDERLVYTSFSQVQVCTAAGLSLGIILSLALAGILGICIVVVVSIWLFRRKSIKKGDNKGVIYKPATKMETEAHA

| Compound | Ki (hCA XII) [µM] | Ki (hCA IX) [µM] | Ki (hCA II) [µM] | Ki (hCA I) [µM] | RF (Reversal Fold: IC50 of doxorubicin alone / in presence of modulator) (K562/DOX cells; compound at 3 µM) | toxicity (HT29/DOX cells [1]) [%] | toxicity (A549/DOX cells [2]) [%] | toxicity (HT29 cells) [%] | toxicity (A549 cells) [%] | RF (Reversal Fold: IC50 of doxorubicin alone / in presence of modulator) (K562/DOX cells; compound at 1 µM) | reduction in cell viability (HT29/DOX cells [3]) [%] | reduction in cell viability (A549/DOX cells [4]) [%] |
| --- | --- | --- | --- | --- | --- | --- | --- | --- | --- | --- | --- | --- |
| COc1ccc(C(CCCN2CCN(CCCOc3ccc4oc(=O)cc(C)c4c3)CC2)c2ccc(OC)cc2)cc1 [Compound 35, 6-(3-(4-(4,4-Bis(4-methoxyphenyl)butyl)piperazin-1-yl)propoxy)-4-methyl-2H-chromen-2-one] | 0.335 | 0.523 | > 10 | > 10 | 14.3 | ≥ 35 | ≥ 35 | ≥ 35 | ≥ 35 |  |  |  |
| COc1cc(/C=C/CN2CCN(CCCCOc3ccc4oc(=O)cc(C)c4c3)CC2)cc(OC)c1OC [Compound 12, (E)-4-Methyl-6-(4-(4-(3-(3,4,5-trimethoxyphenyl)allyl)piperazin-1-yl)butoxy)-2H-chromen-2-one] | 0.14 | 0.104 | > 10 | > 10 | 2.7 | ≥ 35 | ≥ 35 | ≥ 35 | ≥ 35 | 1.9 |  |  |
| COc1cc(CN2CCN(CCCOc3ccc4ccc(=O)oc4c3)CC2)cc(OC)c1OC [Compound 14, 7-(3-(4-(3,4,5-Trimethoxybenzyl)piperazin-1-yl)propoxy)-2H-chromen-2-one] | 0.0136 | 0.0401 | > 10 | > 10 | 3.4 |  |  |  |  | 1.0 | 65.0 | ~55.0 |
| COc1ccc(C(CCCN2CCN(CCCOc3ccc4c(C)cc(=O)oc4c3)CC2)c2ccc(OC)cc2)cc1 [Compound 29, 7-(3-(4-(4,4-Bis(4-methoxyphenyl)butyl)piperazin-1-yl)propoxy)-4-methyl-2H-chromen-2-one] | 0.0915 | 0.149 | > 10 | > 10 |  | ≥ 35 | ≥ 35 | ≥ 35 | ≥ 35 |  |  |  |
| COc1cc(CN2CCN(CCCCOc3ccc4ccc(=O)oc4c3)CC2)cc(OC)c1OC [Compound 15, 7-(4-(4-(3,4,5-Trimethoxybenzyl)piperazin-1-yl)butoxy)-2H-chromen-2-one] | 0.0429 | 0.029 | > 10 | > 10 | 2.3 | ≥ 35 | ≥ 35 |  |  | 1.2 |  |  |
| COc1cc(/C=C/CN2CCN(CCCOc3ccc4oc(=O)ccc4c3)CC2)cc(OC)c1OC [Compound 8, (E)-6-(3-(4-(3-(3,4,5-Trimethoxyphenyl)allyl)piperazin-1-yl)propoxy)-2H-chromen-2-one] | 0.0229 | 0.0407 | > 10 | > 10 | 2.0 | ≥ 35 | ≥ 35 |  |  | 2.0 |  |  |
| COc1cc(/C=C/CN2CCN(CCCOc3ccc4ccc(=O)oc4c3)CC2)cc(OC)c1OC [Compound 2, (E)-7-(3-(4-(3-(3,4,5-Trimethoxyphenyl)allyl)piperazin-1-yl)propoxy)-2H-chromen-2-one] | 0.0294 | 0.0626 | > 10 | > 10 | 4.5 |  |  |  |  | 3.8 |  | ~55.0 |
| COc1cc(/C=C/CN2CCN(CCCOc3ccc4c(C)cc(=O)oc4c3)CC2)cc(OC)c1OC [Compound 5, (E)-4-Methyl-7-(3-(4-(3-(3,4,5-trimethoxyphenyl)allyl)piperazin-1-yl)propoxy)-2H-chromen-2-one] | 0.0272 | 0.0347 | > 10 | > 10 | 27.6 |  |  |  |  | 5.5 | 65.0 |  |
| COc1ccc(C(CCCN2CCN(CCCCOc3ccc4oc(=O)cc(C)c4c3)CC2)c2ccc(OC)cc2)cc1 [Compound 36, 6-(4-(4-(4,4-Bis(4-methoxyphenyl)butyl)piperazin-1-yl)butoxy)-4-methyl-2H-chromen-2-one] | 0.298 | 0.332 | > 10 | > 10 |  | ≥ 35 | ≥ 35 | ≥ 35 | ≥ 35 |  |  |  |
| COc1cc(/C=C/CN2CCN(CCOc3ccc4c(C)cc(=O)oc4c3)CC2)cc(OC)c1OC [Compound 4, (E)-4-Methyl-7-(2-(4-(3-(3,4,5-trimethoxyphenyl)allyl)piperazin-1-yl)ethoxy)-2H-chromen-2-one] | 0.0328 | 0.0252 | > 10 | > 10 | 15.8 |  |  |  |  | 5.7 | 65.0 |  |
| COc1cc(/C=C/CN2CCN(CCOc3ccc4ccc(=O)oc4c3)CC2)cc(OC)c1OC [Compound 1, (E)-7-(2-(4-(3-(3,4,5-Trimethoxyphenyl)allyl)piperazin-1-yl)ethoxy)-2H-chromen-2-one] | 0.013 | 0.0513 | > 10 | > 10 | 2.3 |  |  |  |  | 1.6 |  | ~55.0 |
